The source of these data is US20220280486A1, “COMBINED CANCER THERAPY INVOLVING CHEMICAL ACTIVATION OF INTEGRINS AND TARGETED CELL IMMUNOTHERAPY” (The Regents of the University of California, priority 2019, published 2022).

Test [1] concerns complement-opsonized CD47+ mouse red blood cells. The settings on record: 1 mM manganese. As for the experimental part: For the mouse red blood cell internalization assay, 30,000 RAW264.7 macrophages (ATCC) were plated in one well of a 96-well glass bottom MatriPlate (Brooks, MGB096-1-2-LG-L) between 12 and 24 hours prior to the experiment. Mouse red blood cells (RBCs) (Innovative Research, 88R-M001) were washed into PBS and stained with CSFE (Thermo Fisher, C34554) or Alexa Fluor 488 NHS Ester (ThermoFisher, A20000) for 1 hr at room temperature. RBCs were then opsonized with C3bi as previously described (Chow et al., 2004). Briefly, RBCs were incubated with anti-mouse IgM (MyBioSource, MBS524107) for 1 hour at 37° C. A portion of RBCs were separated for IgM controls, and the remaining RBCs were incubated with C5 deficient serum (Sigma-Aldrich, C1163) for 1 hour at 37° C. Macrophages were washed into serum-free HEPES imaging buffer and incubated with 150 ng/mL PMA and 1 mM Manganese or water. ˜1×10^6 RBCs were added to each well and engulfment was allowed to proceed for 1 hour in incubator. Cells were washed with PBS, unengulfed RBCs were lysed with water for 2 min, and cells were fixed with 4% PFA. Remaining non-lysed, non-engulfed RBCs were stained with APC anti-iC3b antibody (Biolegend, 1:200 dilution, 846106) for 30 minutes. Macrophages were stained with CellMask orange (ThermoFisher, 1:5,000 dilution) and Hoechst (Invitrogen, H3570, 1:1,000 dilution) for 15 minutes. […]

The subject of test [2] is L1210 murine leukemia cells. As to the kind of experiment: Whole cell internalization assay, 8 hr timelapse imaging. It counts as cell-based, mouse. Particulars: 100 μM manganese, bone marrow derived macrophages. On the procedure:
For timelapse imaging, 30,000 primary bone marrow derived macrophages infected with GFP-CAAX were plated in a 96-well glass bottom MatriPlate (Brooks, Catalog #MGB096-1-2-LG-L). 2 hours prior to imaging, cells were washed into serum-free, phenol free DMEM for imaging. Manganese (SigmaAldrich, M8054) was added at 100 μM 30 min prior to imaging. When indicated, CD47 function-blocking antibody clone miap301 (Biolegend, 127520) was used at […]. 100,000 H2B-mCherry expressing L1210 cells were added and the co-culture was imaged for 8 hr.

For the next test, the system named is RAW264.7 macrophages. As to the kind of experiment: Engulfment of supported lipid bilayer-coated silica beads by macrophages (confocal quantification). Type of test: cell-based. Particulars: for engulfment of IgG-coated beads in the absence of CD47: manganese treatment, IgG titration. On the procedure: 8.6×10^8 silica beads with a 5.02 μm diameter (10 μl of 10% solids, Bangs Labs, Catalog #SS05N) were washed three times with PBS, mixed with 1 mM SUVs in PBS and incubated at room temperature for 0.5-2 hours with end-over-end mixing to allow for bilayer formation. Beads were then washed three times with PBS to remove excess SUVs and incubated in 100 μl of 0.2% casein (Sigma, catalog #C5890) in PBS for 15 min before protein coupling. […] Purified CD47^ext-His10 was added at […]. Proteins were coupled to the bilayer for 1 hour at room temperature with end-over-end mixing.
Unless otherwise noted, macrophages remained in culture media (DMEM with 10% heat inactivated serum) throughout the experiment. ˜8×10^5 beads were added to well and engulfment was allowed to proceed for 30 min. Cells were fixed with 4% PFA and stained with CellMask (ThermoFisher, catalog #C10045) without membrane permeabilization to label cell boundaries.

Entries after “also recorded” stand apart in the source; their conditions may differ.

For `[Mn+2]` [manganese, Manganese], the “engulfment of control IgM-treated RBCs” value in test [1] is “not control IgM-treated RBCs”. Besides, the “engulfment of complement-opsonized RBCs” value in test [1] (RAW264.7 macrophages, 1 hour) is given as “dramatically increased engulfment of complement-opsonized RBCs”. Further, in test [2], the “macrophages engulfing a cancer cell” value is reported as “increased the ability of macrophages to engulf cancer cells; also recorded: allowed for engulfment of whole cancer cells; also recorded: can drive engulfment of whole cancer cells”. Besides, in the test with RAW264.7 macrophages (macrophages treated with 1 mM manganese, beads with IgG and CD47 or non-signaling CD47 F37D,T115K), the “engulfment of IgG beads with versus without CD47” value is “engulfed beads with a similar efficiency whether or not CD47 was conjugated to the supported lipid bilayer”. Besides, the figures for the “engulfment of IgG-coated beads in the absence of CD47” value in the test with RAW264.7 macrophages and in the test with RAW264.7 macrophages (listed as Mn2+) were “did not trigger bead engulfment on its own or dramatically enhance engulfment of IgG-coated beads in the absence of CD47” and “did not dramatically enhance engulfment”, respectively. Also, in the test on RAW264.7 macrophages (manganese, no IgG), the “bead engulfment triggered on its own” value is reported as “did not trigger bead engulfment on its own”.
